# According to PubChem BioAssay (NCI):
#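 Protocol summary: plate cells (96-well), add compound at 5 concentrations, incubate 48 h, interpolate endpoints linearly. GI50 marks 50% less growth. The concentration for full growth arrest is given as TGI.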
# Tests used:
# Experiment in all cases: growth of human tumour cells (NCI), 48 h
# SN12C renal = system: SN12C renal
# UO-31 renal = system: UO-31 renal
# SF-268 CNS = system: SF-268 CNS
# HL-60(TB) leukemia = system: HL-60(TB) leukemia
# NCI-H460 lung = system: NCI-H460 lung
# SNB-19 CNS = system: SNB-19 CNS
# MALME-3M melanoma = system: MALME-3M melanoma
# OVCAR-8 ovarian = system: OVCAR-8 ovarian
# RXF 393 renal = system: RXF 393 renal
# NCI-H23 lung = system: NCI-H23 lung
SMILES,TGI (SN12C renal),TGI (UO-31 renal),TGI (SF-268 CNS),TGI (HL-60(TB) leukemia),TGI (NCI-H460 lung),TGI (SNB-19 CNS),TGI (MALME-3M melanoma),TGI (OVCAR-8 ovarian),TGI (RXF 393 renal),TGI (NCI-H23 lung),GI50 (SN12C renal),GI50 (UO-31 renal),GI50 (HL-60(TB) leukemia),GI50 (NCI-H460 lung),GI50 (SNB-19 CNS),GI50 (MALME-3M melanoma),GI50 (OVCAR-8 ovarian),GI50 (RXF 393 renal),GI50 (NCI-H23 lung)
Brc1ccccc1-c1ncc(-c2ccccc2)o1,> 100 µM,> 100 µM,> 100 µM,> 100 µM,> 100 µM,> 100 µM,76.3 µM,> 100 µM,55.9 µM,> 100 µM,–,–,–,–,–,–,–,–,–
COc1cc(C2c3cc4c(cc3[C@@H](Nc3cccc(C(C)=O)c3)C3COC(=O)[C@H]23)OCO4)cc(OC)c1O (stereo not given in full),–,6.89 µM,13.1 µM,0.328 µM,1.07 µM,4.79 µM,15 µM,> 28.9 µM,5.4 µM,3.14 µM,–,–,–,–,–,–,–,–,–
CC1(C)N=C(N)N=C(N)N1c1cccc(OCCOc2ccc([N+](=O)[O-])cc2)c1,> 100 µM,–,> 100 µM,> 100 µM,> 100 µM,> 100 µM,> 100 µM,> 100 µM,> 100 µM,> 100 µM,–,–,–,–,–,–,–,–,–
COc1ccc(CC(C)N)cc1 (stereo not given),> 100 µM,> 100 µM,> 100 µM,> 100 µM,> 100 µM,> 100 µM,> 100 µM,> 100 µM,> 100 µM,> 100 µM,–,–,–,–,–,–,–,–,–
CC(C)(Br)C1(O)CCCN1C(=O)c1ccccc1 (stereo not given),> 100 µM,> 100 µM,> 100 µM,> 100 µM,> 100 µM,> 100 µM,> 100 µM,> 100 µM,> 100 µM,> 100 µM,–,–,–,–,–,–,–,–,–
NCc1ccccc1C1CSCSC1,> 100 µM,> 100 µM,> 100 µM,> 100 µM,> 100 µM,–,> 100 µM,> 100 µM,> 100 µM,> 100 µM,–,–,–,–,–,–,–,–,–
CC12Cc3cc4c(cc3C1(c1ccc([N+](=O)[O-])cc1)OCCO2)OCO4 (stereo not given),> 100 µM,> 100 µM,71.6 µM,> 100 µM,> 100 µM,73.2 µM,> 100 µM,64 µM,51.6 µM,> 100 µM,–,–,–,–,–,–,–,–,–
O=C(CSCC(=O)N/N=C\c1ccc(-c2ccccc2)cc1)N/N=C\c1ccc(-c2ccccc2)cc1,53.6 µM,> 100 µM,53.9 µM,–,> 100 µM,> 100 µM,64.1 µM,58.2 µM,> 100 µM,35.4 µM,–,–,–,–,–,–,–,–,–
c1ccc(-c2nn(-c3ccccc3)[n+](-c3ccccc3)n2)cc1,> 100 µM,> 100 µM,> 38.8 µM,6.47 µM,> 100 µM,> 100 µM,2.93 µM,> 100 µM,80.6 µM,28.3 µM,–,–,–,–,–,–,–,–,–
Cc1ccc(S(N)(=O)=O)cc1,> 1000 µM,> 1000 µM,> 1000 µM,> 1000 µM,> 1000 µM,> 1000 µM,> 1000 µM,> 1000 µM,> 1000 µM,> 1000 µM,–,–,–,–,–,–,–,–,–
COc1ccc(NC(=O)/C(=C/c2ccc(N(CCC#N)CCC#N)cc2)NC(=O)c2cc([N+](=O)[O-])ccc2Cl)cc1,> 100 µM,> 100 µM,> 100 µM,–,–,> 100 µM,> 100 µM,> 100 µM,> 100 µM,> 100 µM,–,–,–,–,–,–,–,–,–
CCOC(=O)/C=C(\C)c1ccc(OC)cc1,> 100 µM,> 100 µM,> 100 µM,> 100 µM,> 100 µM,> 100 µM,> 100 µM,> 100 µM,> 100 µM,> 100 µM,–,–,–,–,–,–,–,–,–
c1ccc(CSc2nc(N3CCOCC3)c3cn[nH]c3n2)cc1,37.7 µM,38.4 µM,58.8 µM,> 100 µM,59 µM,87.4 µM,31.8 µM,89.1 µM,32.9 µM,> 100 µM,–,–,–,–,–,–,–,–,–
CC[n+]1c(/C=C/c2ccc(N(CCCl)CCCl)cc2)ccc2cc(NC(=O)/C=C/c3ccccc3)ccc21,1.52 µM,52.2 µM,1.96 µM,0.389 µM,1.36 µM,1.67 µM,0.81 µM,5.7 µM,2.84 µM,1.98 µM,–,–,–,–,–,–,–,–,–
ClCc1c(Cl)c(Cl)c(Cl)c(CCl)c1Cl,4.03 µM,3.12 µM,–,4.07 µM,3.39 µM,4.23 µM,3.79 µM,6.03 µM,3.08 µM,6.67 µM,1.91 µM,1.63 µM,2.03 µM,1.79 µM,1.94 µM,1.55 µM,2.51 µM,1.71 µM,2.3 µM
COC(=O)c1cc(C#Cc2cc(OC)ccc2OC)ccc1OC,> 100 µM,> 100 µM,> 100 µM,> 100 µM,> 100 µM,> 100 µM,> 100 µM,> 100 µM,84.1 µM,> 100 µM,37.9 µM,–,–,–,–,–,–,–,–
CN(C)c1ccc(N=Nc2ccccn2)cc1,> 100 µM,79.8 µM,> 100 µM,52.3 µM,> 100 µM,> 100 µM,> 100 µM,> 100 µM,> 100 µM,83.2 µM,–,–,–,–,–,–,–,–,–
COc1cc[n+](C)cc1,> 100 µM,> 100 µM,> 100 µM,> 100 µM,> 100 µM,> 100 µM,> 100 µM,> 100 µM,> 100 µM,> 100 µM,–,–,–,–,–,–,–,–,–
COc1ccc(NC(=O)/C(CC2=Nc3ccc([N+](=O)[O-])cc3NC2O)=N\NC(=O)C[N+](C)(C)C)c(OC)c1 (stereo not given),> 100 µM,> 100 µM,> 100 µM,> 100 µM,> 100 µM,> 100 µM,–,69.8 µM,> 100 µM,> 100 µM,–,–,–,–,–,–,–,–,–
Cc1nc2ccccc2c(=O)[nH]1,> 100 µM,> 100 µM,> 100 µM,> 100 µM,> 100 µM,> 100 µM,> 100 µM,> 100 µM,> 100 µM,> 100 µM,–,–,–,–,–,–,–,–,–
N#Cc1c(NC(=S)NC(=O)c2ccccc2)nc2c(c1-c1ccccc1)CCCC2,–,> 100 µM,27.2 µM,> 100 µM,> 100 µM,> 100 µM,–,> 100 µM,56.5 µM,> 100 µM,–,–,–,–,–,–,–,–,–
C=C1C(=O)OC2C1CC(O)/C(C)=C\CCC1(C)OC21 (stereo not given),–,66.6 µM,86.6 µM,83.8 µM,> 100 µM,> 100 µM,45.4 µM,> 100 µM,31.8 µM,> 100 µM,–,–,–,–,–,–,–,–,–
COc1ccc(-c2cc(N3CCN(c4ccccc4)CC3)c(C#N)c(=O)o2)cc1,> 100 µM,44.8 µM,49.3 µM,> 100 µM,> 100 µM,49.8 µM,53.7 µM,> 100 µM,38 µM,> 100 µM,–,–,–,–,–,–,–,–,–
CCC(C)C(=O)c1c(O)c(C/C=C(\C)CCC=C(C)C)c(O)c2c(C(O)CC)cc(=O)oc12 (stereo not given),8.26 µM,6.95 µM,10.8 µM,3.48 µM,7.23 µM,16.2 µM,5.28 µM,–,7.19 µM,3.89 µM,–,–,–,–,–,–,–,–,–
O=[N+]([O-])c1cn[n+]([O-])c2ccccc12,21.5 µM,–,17.9 µM,3.59 µM,24.5 µM,25.2 µM,29.4 µM,11.6 µM,–,36.1 µM,–,–,–,–,–,–,–,–,–
CCO/N=[N+](\[O-])N(CC)CC,> 100 µM,> 100 µM,> 100 µM,> 100 µM,> 100 µM,> 100 µM,–,> 100 µM,> 100 µM,> 100 µM,–,–,–,–,–,–,–,–,–
Cc1cn(Cc2ccccc2CCl)c(=O)[nH]c1=O,32.7 µM,24.8 µM,38.1 µM,14.8 µM,44.3 µM,25.9 µM,57 µM,29.2 µM,23.9 µM,23.3 µM,–,–,–,–,–,–,–,–,–
COC(=O)/C=c1/c2ccccc2n2nc3ccccc3c12,> 100 µM,> 100 µM,> 100 µM,> 100 µM,> 100 µM,> 100 µM,> 100 µM,> 100 µM,> 100 µM,> 100 µM,–,–,–,–,–,–,–,–,–
